Laboratory results as given in ChEMBL document CHEMBL1201862, “PubChem BioAssay data set” (2004).
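Tested at 5 concentrations; 48 h exposure; 96-well plates; endpoints linearly interpolated, else capped at highest concentration. GI50 is the concentration that inhibits growth by half.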 Activity calls are given as the source filed them. No stated cut-off is given here; in the data, active = GI50 up to about 1.1 µM and inactive = higher.

Legend:
Experiment in all cases: growth of human tumour cells (NCI), 48 h
CAKI-1 = tested on: CAKI-1
DU-145 = tested on: DU-145
HCT-15 = tested on: HCT-15
Hs-578T = tested on: Hs-578T
K562 = tested on: K562
M14 = tested on: M14
MDA-MB-231 = tested on: MDA-MB-231
MDA-MB-435 = tested on: MDA-MB-435
MDA-N = tested on: MDA-N
Malme-3M = tested on: Malme-3M
NCI-H460 = tested on: NCI-H460
OVCAR-5 = tested on: OVCAR-5
RPMI-8226 = tested on: RPMI-8226
RXF 393 = tested on: RXF 393
SF-268 = tested on: SF-268
SK-MEL-28 = tested on: SK-MEL-28
SN12C = tested on: SN12C
SR = tested on: SR
SW-620 = tested on: SW-620
U-251 = tested on: U-251

Measured: GI50

CC(=O)NCCC1CNc2ccccc21 (stereo not given)
inactive: CAKI-1 > 100 µM | DU-145 > 100 µM | Hs-578T > 100 µM | K562 > 100 µM | M14 > 100 µM | MDA-MB-231 > 100 µM | MDA-MB-435 > 100 µM | MDA-N > 100 µM | Malme-3M > 100 µM | NCI-H460 > 100 µM | OVCAR-5 > 100 µM | RPMI-8226 > 100 µM | RXF 393 > 100 µM | SF-268 > 100 µM | SK-MEL-28 > 100 µM | SN12C > 100 µM | SR > 100 µM | SW-620 > 100 µM | U-251 > 100 µM
> 100 µM: HCT-15

CCOc1ccc2nc(NC(=O)C(=O)C(C(=O)c3ccccc3-c3ccccc3)C3OC(=O)c4ccccc43)sc2c1 (stereo not given)
inactive: CAKI-1 23.2 µM | DU-145 21.9 µM | Hs-578T 34.8 µM | K562 22.3 µM | M14 27.6 µM | MDA-MB-231 25.9 µM | MDA-MB-435 25.4 µM | MDA-N 19.6 µM | Malme-3M 13.8 µM | NCI-H460 19.5 µM | OVCAR-5 44.3 µM | RPMI-8226 12.2 µM | RXF 393 13.4 µM | SF-268 19.8 µM | SK-MEL-28 20.2 µM | SN12C 11.7 µM | SR 9.79 µM | SW-620 26.6 µM | U-251 15 µM
22.4 µM: HCT-15

Nc1ccn(C2OC(CO)C(O)C2O)c(=O)n1 (stereo not given)
inactive: DU-145 1.74 µM | Hs-578T > 481 µM | K562 14.6 µM | MDA-MB-231 196 µM | MDA-MB-435 35.4 µM | MDA-N 7.45 µM | Malme-3M 13.8 µM | OVCAR-5 21.2 µM | RPMI-8226 337 µM | RXF 393 191 µM | SF-268 3.15 µM | SK-MEL-28 68.2 µM | SN12C 2.38 µM | SW-620 31.4 µM | U-251 8.89 µM
73.5 µM: HCT-15
active: CAKI-1 1.04 µM | M14 0.186 µM | NCI-H460 0.0885 µM | SR 0.23 µM

CC1(C)OC2C(CO)OC(n3ccc(N)nc3=O)C2O1 (stereo not given)
> 100 µM: HCT-15
inactive: CAKI-1 > 100 µM | DU-145 > 100 µM | Hs-578T > 100 µM | K562 > 100 µM | M14 > 100 µM | MDA-MB-231 > 100 µM | MDA-MB-435 > 100 µM | MDA-N > 100 µM | Malme-3M > 100 µM | NCI-H460 > 100 µM | OVCAR-5 > 100 µM | RPMI-8226 > 100 µM | RXF 393 > 100 µM | SF-268 > 100 µM | SK-MEL-28 > 100 µM | SN12C > 100 µM | SR > 100 µM | SW-620 > 100 µM | U-251 > 100 µM

O=C1C=CC2(C=C1)O[C@H](Cc1ccccc1)[C@@H](Cc1ccccc1)O2
active: CAKI-1 0.484 µM | Hs-578T 0.716 µM | K562 0.388 µM | M14 0.653 µM | MDA-MB-231 1.12 µM | MDA-N 0.246 µM | OVCAR-5 0.281 µM | RPMI-8226 0.177 µM | RXF 393 0.26 µM | SF-268 0.755 µM | SK-MEL-28 0.887 µM | SN12C 0.665 µM | SR 0.11 µM | SW-620 0.137 µM | U-251 1.05 µM
0.243 µM: HCT-15
inactive: DU-145 1.26 µM | MDA-MB-435 1.31 µM | Malme-3M 1.48 µM | NCI-H460 8.79 µM
